# Measured values reported in patent US9839614B2, “Nanoparticle and polymer formulations for thyroid hormone analogs, antagonists, and formulations and uses thereof” (NANOPHARMACEUTICALS LLC, priority 2009, dated 2017).
# Where “and” joins values, the source holds several entries; their conditions need not be identical. Equal entries are not always repeated.
# Key:
# [1] = test system: matrigel plug angiogenesis; experiment: Mouse matrigel model of angiogenesis (plug hemoglobin); type: in vivo, mice (C57BL/6NCr)
# Procedure: Normal male mice (C57BL/6NCr) 6-8 weeks of age and weighing ˜20 g were purchased from Taconic farm. Animals were housed 4 per cage, in controlled conditions of temperature (20-24° C.); humidity (60-70%) and 12 hrs. light/dark cycle provided with food and water ad libitum. […] Aliquots of matrigel were placed into cold polypropylene tubes to prevent the matrigel from solidifying and the angiogenesis promoter added to matrigel with or without agonist. Mice were treated daily. Matrigel was subcutaneously injected as triple injection per animal at 100 μL/animal. At day 14 post plug implant all animals were killed in CO2 chamber and matrigel plugs were collected. Plug hemoglobin content was analyzed from three implants/mice (n=6 per group) to measure angiogenesis.
# The matrigel plugs dissected from the mice were carefully stripped of any remaining peritoneum. The plugs were placed into 0.5 mL tube of ddH2O and homogenized for 5-10 min. […] Absorbance was read with a Microplate Manager ELISA reader at 540 nm. […] Hemoglobin concentration is a reflection of the number of blood vessels in the plugs.
# [2] = test system: human MTC cells gene expression; experiment: RNA microarray analysis of h-MTC cells; type: cell-based
# Procedure: Technical aspects of microarray studies, stringent quality control of microarray studies and statistic analysis of gene expression were as described previously. […] In brief, the array hybridization and processing, data retrieval and the analysis were carried out with standard sets of Affymetrix (Santa Clara, Calif.) equipment, software and protocols in an Affymetrix microarray core facility. RNA was extracted from cell cultures of two independent biological replicates of each experimental condition and analyzed for sample purity and integrity, using BioAnalyzer instrumentation (Agilent, Santa Clara, Calif.). Expression analysis of 54,675 transcripts was conducted for each sample, using Affymetrix HG-U133A Plus 2.0 arrays. Data retrieval and analysis was completed by MAS5.0 software. Concordant changes of gene expression for each experimental condition were determined at the statistical threshold P value, <0.01 (two-tailed t test).
# [3] = test system: GL261 murine brain tumor cells; experiment: GL261 single dose 250 kVp x-ray survival (SHMT and LQ analysis); type: cell-based
# Procedure: To irradiate 25 cm^2 flasks, an x-ray machine was used and (Philips 250 kVp Therapeutic X-ray Machine, Einhoven, […]) operated at 250 kVp and 15 mA with added filtration of 0.4 mm Thoreaus filter. The target to source distance was approximately 30 cm. Dose rates were measured using an R-meter (Victoreen R-meter, Cleveland, Ohio), and converted to absorbed (Gy) doses using appropriate temperature, pressure, and R to Gy conversion factors. The dose rate was 1 Gy per min. Flasks were irradiated at ambient temperature.
# For […] analyses, survival data lying at or below 36.8% survival were analyzed by using the log fractional survival (log FxS) versus dose (D). Data were fit using linear regression analysis (SigmaPlot, V. 10, Systat Corp., Point Richmond, Calif.) to obtain the Y-intercept (or n, the extrapolation number) and the slope (1/D0), and their 95% confidence limits. (See Goldstein, A. In: Biostatistics, New York, The MacMillan Co., 1964, p. 140-146). The D0 value (Gy) is defined as the inverse of the slope, and the corrected Dq value (Gy) was then defined using the relationship: Dq(Gy)=ln n×D0(Gy) The 95% confidence limits on Dq were defined using error propagation. (See Chase, et al., In: Principles of Radioisotope Methodology. Minneapolis, Minn. Burgess Publ. Co., 1962, p. 68, 87-90). Statistics: LQ Analysis
# For LQ analyses, data lying between a fractional survival of 1.00 and 0.05 were used. The fractional survival data at each dose were transformed using the relationship (−ln F×S/D) and plotted against dose (D). A regression analysis was performed to yield the LQ equation along with their 95% confidence limit values using a t-table with the appropriate (N−1) degrees of freedom. (See Goldstein, A. In: Biostatistics, New York, The MacMillan Co., 1964, p. 140-146).
# To determine the tetrac modification factor (TMF), the survival at 2 Gy obtained for control cells was divided by the survival at 2 Gy for tetrac treated cells. The 95% confidence limits on the ratio were determined using error propagation techniques. (See Chase, et al. In: Princiiples of Radioisotope Methodology, Minneapolis, Minn., Burgress Publ. Co., 1962, p. 68, 87-90).
# [4] = test system: GL261 murine brain tumor cells; experiment: GL261 sublethal damage repair (SLDR), split dose; type: cell-based
# Procedure: SLDR was measured at 10% immediate survival level as determined from the acute single dose curve for both control and Tetrac-treated cells in both growth states (i.e. exponentially growing and plateau phase cells. Flasks were irradiated with one-half of the total dose and returned to the 37° C. incubator. At increasing periods of time, flasks were removed, and given the second half of the immediate 10% survival dose. Survival was measured at 0, 0.5, 1.0, 1.5, 2.0, 3.0, 4.0, 6.0, 8.0, and 10.0 hours after the initial dose.
# (§1) To investigate the effects of tetrac on SLDR and PLDR, cells were chosen that had been given a one-hour treatment with tetrac at two different times, i.e., at 70 and 270 hours post-seeding).
# [5] = test system: GL261 murine brain tumor cells; experiment: GL261 potentially lethal damage repair (PLDR); type: cell-based
# Procedure: PLDR was also measured using the 10% survival level in both control and Tetrac treated-cells, and was also done for both exponentially growing and plateau phase cells. The total 10% survival dose was given, and then cells were placed back into the 37° C. incubator for various periods of time. At 0, 0.5, 1.0, 1.5, 2.0, 3.0, 4.0, 6.0, 8.0, and 10.0 hours, flasks were removed, and processed for survival assessment.
# as §1
# [6] = test system: P-gp, GST and SOD in MCF7/R cells; experiment: Western blot of drug resistance genes; type: cell-based; conditions: 24 h
# Procedure: FIG. 15A is a Western blot showing the expression of P-gp, GST and SOD in wild type (W) drug sensitive and resistant (R) MCF7 cells.
# The cells were treated for 24 h with each drug alone or the combination of both, after that, expression of drug resistance molecules was determined by Western blot using specific antibodies.
# [7] = Exponential phase (with Tetrac)
# [8] = Unfed plateau Phase (with Tetrac)
structure (smiles),measurement,setting,value
"O=C(O)Cc1cc(I)c(Oc2cc(I)c(O)c(I)c2)c(I)c1 [Tetrac, tetraiodothyroacetic acid]",Mean inhibition of angiogenesis (%),[1]; FGF 100 ng + Tetrac or analog 10 μg/plug,90 ± 13%
same,Mean inhibition of angiogenesis (%),"[1]; T4 + antagonist, each 10 μg/matrigel plug",89 ± 11%
same,inhibition of FGF induced angiogenesis,[1]; Tetrac 10 μg,85%
same,inhibition of FGF induced angiogenesis,[1]; Tetrac 30 μg,91%
same,VEGFA expression,[2],significantly decreased expression
same,"expression of apoptosis genes (CASP2, DFFA, FAF1, CASP8AP2)",[2],caused expression of genes associated with induction of apoptosis
same,thrombospondin (THBS1) gene expression,[2],concomitant increase
same,SF2 (survival at 2 Gy),"[3]; Exponential Phase (with Tetrac), 95% confidence limits in parentheses",14.2 (10.8-18.8) %
same,SHMT n,"[3]; Exponential phase (with Tetrac 2 μM, 1 h)",1.06
same,LQ α (Gy^−1),[3]; [7],0.930 Gy^−1
same,LQ β (Gy^−2),[3]; [7],0.003 Gy^−2
same,SHMT D0 (Gy),[3]; [7],1.08 Gy and 1.08 (0.09). Gy
same,sensitization of hypoxic or oxic cells,[3]; Tetrac 2 μM,sensitize both oxic and hypoxic cells equally
same,LQ α (Gy^−1),[3]; [8],1.157 Gy^−1
same,LQ β (Gy^−2),[3]; [8],0.066 Gy^−2
same,SF2 (survival at 2 Gy),[3]; [8],7.6%
same,SHMT D0 (Gy),[3]; [8],0.75 Gy
same,SHMT Dq (Gy),[3]; [8],0.00 Gy
same,SHMT n,[3]; [8],1.04
same,increase of D0,[3]; exponentially growing cells,15%
same,reduction of Dq,[3]; exponentially growing cells,100%
same,reduction of extrapolation number n,[3]; exponentially growing cells,93%
same,survival of Tetrac treated cells at 2 Gy,[3]; non-Tetrac treated cells 32% (FIG. 57),13%
same,reduction of D0,[3]; plateau phase cells,6%
same,reduction of Dq,[3]; plateau phase cells,100%
same,cellular repair of x-ray damage (FIG. 58),"[4]; Tetrac 2 uM, 6 to 8 hours post-irradiation",no repair of x-ray damage
same,SLDR recovery ratio,"[4]; exponential Tetrac-treated cells, 2 hours after the first dose",1.8
same,factor of reduction of SLDR,[4]; exponential cells,1.8
same,factor of decrease in cellular repair,"[4]; plateau phase cells, three hours post-irradiation",~3
same,survival relative to survival at 0 hours,"[4]; plateau phase, 3 hours after the initial dose",approximately 36%
same,factor of inhibition of PLDR,[5]; exponential cells,1.9
same,factor of decrease of PLDR expression,[5]; plateau phase cells,3.4
same,"expression of P-glycoprotein, SOD, and GST-π",[6],none of these genes was significantly altered
